According to patent US20230082311A1, “DRUG FOR CURATIVE THERAPY OF INTRACTABLE HEREDITARY RENAL ALPORT SYNDROME” (NATIONAL UNIVERSITY CORPORATION KUMAMOTO UNIVERSITY, priority 2019, published 2023):
*1 amine or outer side, *2 acyl side, *3 side chain or, on linkers, in order; H or OH if unused. Where a SMILES comes first, the peptide text is derived from it. [ ]: non-standard residue; d: D form. X1 = COCCN1CCN(C[C@H](C)[C@@H](C(=O)[*:2])N(C)[*:1])CC1; MeBmt = C/C=C/C[C@@H](C)[C@@H](O)[C@H](NC)C(=O)O; NMeL = CN[C@@H](CC(C)C)C(=O)O; NMeV = CN[C@H](C(=O)O)C(C)C; dNMeA = CN[C@H](C)C(=O)O; Abu = CC[C@H](N)C(=O)O

Assays:
[1] = clinical trials (Zeuzem 2015; Buti 2015); cited from earlier work
[2] = tested on: α3WT/α4WT/α5WT collagen trimer (COL4a5/WT); assay: Type IV collagen α345 trimer assay by Nano luciferase, wild-type COL4A5 stable line; assay type: cell-based, Human; settings: wild-type stable cell line, FIG. 5 upper
Protocol: HEK293T cells (Human Embryonic Kidney 293) were obtained from the RIKEN Cell Bank, and thereafter addition of virus concentration solution for COL4A4-3FLAG (Puro), COL4A3-SmBiT (Hyg), COL4A5-LgBiT (BSD) (Omachi K. et al., Cell Chemical Biology 2018, 25, 634-643) in this order, exchange of drug resistance containing medium, passage and preservation of surviving cells were repeated whereby a cell line stably expressing α345 (IV) trimer was generated. COL4A5 variant G1244D was prepared using pLVSIN EF1α BSD COL4A5-LgBiT as a template and using Quikchange (registered trade mark) II Site-directed Mutagenesis Kit (STRATAGENE (registered trade mark)). The primers used were follows. PCR reactions (95° C. for 1 min, one cycle; 95° C. for 50 sec, 60° C. for 50 sec, 68° C. for 90 sec/1 kb, 18 cycles; 68° C. for […]) were performed with each Primer. […]
A cell line stably expressing split nano luciferase-fused α345 required for the NanoLuc α345 trimer assay was seeded on LumiNuc 96 well white plate (Thermo). After 24 hr, the cells were cultured in phenol red-free DMEM complete medium containing 2-phosphate ascorbic acid (200 μM), substrates were added to the culture supernatant and cells according to the standard method of NanoGlo live cell assay (Promega) reagent, and luminescence was confirmed with luminometer GloMax Navigator (Promega). […]

[3] = tested on: COL4A5 AS mutants (G227S, G594D, G624D, G869R, S916G, G1030S, G1107R, G1140V, G1220D, G1241C, G1241V, G1244D, P1517T, R1569Q) and Exon41-deleted variant; assay type: cell-based, Human; settings: panel of 14 AS mutants, Exon41-deleted variant and wild type, FIG. 7
calcineurin = settings: cited from earlier work
[4] = tested on: α345 (COL4A5-G1244D) collagen trimer; assay: Type IV collagen α345 trimer assay by Nano luciferase, COL4A5-G1244D stable line; assay type: cell-based, Human; settings: for secretion level of collagen trimer as a function of concentration: COL4A5 (G1244D), concentration series up to 10 μM, FIG. 1-3; for collagen trimer secretion (luminescence of culture supernatant, ratio to DMSO-treated group): HEK293T line stably expressing α345 (COL4A5-G1244D), 24 hr treatment
Protocol: HEK293T cells (Human Embryonic Kidney 293) were obtained from the RIKEN Cell Bank, and thereafter addition of virus concentration solution for COL4A4-3FLAG (Puro), COL4A3-SmBiT (Hyg), COL4A5-LgBiT (BSD) (Omachi K. et al., Cell Chemical Biology 2018, 25, 634-643) in this order, exchange of drug resistance containing medium, passage and preservation of surviving cells were repeated whereby a cell line stably expressing α345 (IV) trimer was generated. COL4A5 variant G1244D was prepared using pLVSIN EF1α BSD COL4A5-LgBiT as a template and using Quikchange (registered trade mark) II Site-directed Mutagenesis Kit (STRATAGENE (registered trade mark)). The primers used were follows. PCR reactions (95° C. for 1 min, one cycle; 95° C. for 50 sec, 60° C. for 50 sec, 68° C. for 90 sec/1 kb, 18 cycles; 68° C. for […]) were performed with each Primer. The base sequence of DNA was confirmed by the cycle sequence method (Sigma-Aldrich JAPAN).
A cell line stably expressing split nano luciferase-fused α345 required for the NanoLuc α345 trimer assay was seeded on LumiNuc 96 well white plate (Thermo). After 24 hr, the cells were cultured in phenol red-free DMEM complete medium containing 2-phosphate ascorbic acid (200 μM), substrates were added to the culture supernatant and cells according to the standard method of NanoGlo live cell assay (Promega) reagent, and luminescence was confirmed with luminometer GloMax Navigator (Promega).
The cell line stably expressing α345 (COL4A5-G1244D) was detached and seeded on LumiNuc 96 well white plate (Thermo) at a density of 2×10^4 cells/well. 24 hr after seeding, the medium was exchanged with a phenol red-free DMEM complete medium containing 2-phosphate ascorbic acid (200 μM) and each concentration of cyclosporin A (CsA) (0.1, 0.5, 1, 2, 5, 10 μM), or each concentration of PSC-833 (0.5, 1, 2, 5, 10 μM), or each concentration of Alisporivir (0.1, 0.5, 5, 10 μM) and the cells were cultured. A substrate was added 24 hr later to the culture supernatant according to the standard method of NanoGlo live cell assay (Promega) reagent, and luminescence (index of trimer secretion) was measured by luminometer GloMax Navigator (Promega). The control solvent (CON) used was dimethyl sulfoxide (DMSO).

PPIF (cyclophilin D) [5] = target: T1, PPIF (cyclophilin D) (Homo sapiens, UniProt P30405); assay: Collagen trimer secretion promotion in G1244D HEK293T cells with cyclophilins knocked down with siRNA; assay type: cell-based; settings: siRNA 15 nM against 11 cyclophilins, CsA 1 μM, Alisporivir 2 μM, FIG. 8
T1 construct: endogenous in cells; host or cells: HEK293T stably expressing split-NanoLuc alpha345 (COL4A5-G1244D), with or without siRNA knock-down
T1 sequence (P30405 30-207): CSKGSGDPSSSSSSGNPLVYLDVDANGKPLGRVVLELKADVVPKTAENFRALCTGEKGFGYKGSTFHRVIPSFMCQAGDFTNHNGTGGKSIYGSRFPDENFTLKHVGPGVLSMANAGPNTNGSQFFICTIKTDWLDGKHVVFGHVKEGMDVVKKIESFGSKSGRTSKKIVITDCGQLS
Text: To elucidate the mechanism of collagen trimer secretion promotion by CsA and Alisporivir, cells in which cyclophilins to which CsA and Alisporivir can bind were knocked down with siRNA were produced, and the collagen trimer secretion promoting effect by CsA and Alisporivir in the cells was investigated comprehensively.
As the cells, G1244D mutation-introduced HEK293T cells—for which the effect of CsA and Alisporivir were confirmed in previous experiments—were used.
(§1) An cell line stably expressing split nano luciferase-fused α345 required for the NanoLuc α345 trimer assay was seeded on a 6 well plate (Corning) at 3×10^5 cells/well, and the siRNAs shown in Table 1 were introduced by lipofection at the time of subconfluence. The target genes are all cyclophilins, and the abbreviations in Table 1 indicate the following substances.
Lipofectamine RNAi Max was used for transfection of siRNA. The final siRNA concentration was adjusted to 15 nM, and transfection was performed according to the standard protocol. 24 hr after siRNA introduction, the cells were detached and reseeded on a LumiNuc 96 well white plate (Thermo) at 4×10^4 cells/well. […] Substrates were added 24 hr later to the culture supernatant and cells according to the standard method of NanoGlo live cell assay (Promega) reagent, and luminescence (index of trimer secretion) was measured by luminometer GloMax Navigator (Promega). […]

[6] = tested on: α3WT/α4WT/α5G1241V collagen trimer (COL4a5/G1241V); assay type: cell-based, Human
PPIF (cyclophilin D) [7] = target: T1, PPIF (cyclophilin D); assay: Collagen trimer secreting ability of G1244D HEK293T cells after knock-down of cyclophilins with siRNA; assay type: cell-based; settings: G1244D mutant-transfected HEK293T cells, FIG. 9
Protocol: as §1
Lipofectamine RNAi Max was used for transfection of siRNA. The final siRNA concentration was adjusted to 15 nM, and transfection was performed according to the standard protocol. 24 hr after siRNA introduction, the cells were detached and reseeded on a LumiNuc 96 well white plate (Thermo) at 4×10^4 cells/well. 24 hr thereafter, the medium was exchanged with a phenol red-free DMEM complete medium containing 2-phosphate ascorbic acid (200 μM) and Cyclosporin A (CsA) (1 μM), or Alisporivir (2 μM) and the cells were cultured. Substrates were added 24 hr later to the culture supernatant and cells according to the standard method of NanoGlo live cell assay (Promega) reagent, and luminescence (index of trimer secretion) was measured by luminometer GloMax Navigator (Promega). The control solvent (CON) used was DMSO. […]

C/C=C/C[C@@H](C)[C@@H](O)[C@H]1C(=O)N[C@@H](CC)C(=O)N(C)[C@H](C)C(=O)N(CC)[C@@H](C(C)C)C(=O)N[C@@H](C(C)C)C(=O)N(C)[C@@H](CC(C)C)C(=O)N[C@@H](C)C(=O)N[C@H](C)C(=O)N(C)[C@@H](CC(C)C)C(=O)N(C)[C@@H](CC(C)C)C(=O)N(C)[C@@H](C(C)C)C(=O)N1C [Alisporivir]
nephrotoxicity in clinical trials [1]: no nephrotoxicity
secretion of trimers of COL4a5/WT-containing collagen [2]: did not show an influence on COL4a5/WT
collagen trimer secretion in COL4A5 variants [3]: exhibited a significant effect in G1030S, G1107R, G1220D, G1241C, G1241V, G1244D, and Exon41-deleted variants
calcineurin inhibition (calcineurin): does not inhibit calcineurin
secretion level of collagen trimer as a function of concentration [4]: increases depending on the concentration of Alisporivir
action of promoting collagen trimer secretion compared with CsA ([4]; COL4A5-G1244D, concentrations of 5 μM and 10 μM, FIG. 4): stronger action of promoting collagen trimer secretion than CsA
collagen trimer secretion (luminescence of culture supernatant, ratio to DMSO-treated group) [4]: showed an action of promoting collagen trimer secretion
effect of promoting the secretion of collagen trimers in cyclophilin knock-down cells (PPIF (cyclophilin D) [5]): decreased only in the cells knocked down with PPIF (cyclophilin D)
extracellular secretion of collagen trimers, COL4a5/G1241V ([6]; G1241V stable cell line, FIG. 5 lower): promoted extracellular secretion of collagen trimers

C/C=C/C[C@@H](C)[C@@H](O)[C@H]1C(=O)N[C@@H](CC)C(=O)N(C)[C@H](C)C(=O)N(C)[C@@H]([C@@H](C)CN2CCN(CCOC)CC2)C(=O)N[C@@H](C(C)C)C(=O)N(C)[C@@H](CC(C)C)C(=O)N[C@@H](C)C(=O)N[C@H](C)C(=O)N(C)[C@@H](CC(C)C)C(=O)N(C)[C@@H](CC(C)C)C(=O)N(C)[C@@H](C(C)C)C(=O)N1C [NIM258] (cyclo(A[dA][NMeL][NMeL][NMeV][MeBmt][Abu][dNMeA][X1]V[NMeL]))
calcineurin inhibition (calcineurin): does not inhibit calcineurin
extracellular secretion of collagen trimer compared with DMSO-administered group ([6]; 5 μM or 10 μM, G1241V cell line per FIG. 6): extracellular secretion of collagen trimers was promoted

C/C=C/C[C@@H](C)C(=O)[C@H]1C(=O)N[C@@H](C(C)C)C(=O)N(C)CC(=O)N(C)[C@@H](CC(C)C)C(=O)N[C@@H](C(C)C)C(=O)N(C)[C@@H](CC(C)C)C(=O)N[C@@H](C)C(=O)N[C@H](C)C(=O)N(C)[C@@H](CC(C)C)C(=O)N(C)[C@@H](CC(C)C)C(=O)N(C)[C@@H](C(C)C)C(=O)N1C [PSC-833]
calcineurin inhibition (calcineurin): does not inhibit calcineurin
secretion level of collagen trimer as a function of concentration [4]: does not increase even when the amount of PSC-833 is increased to 10 μM
intracellular expression level of collagen trimer ([4]; COL4A5-G1244D line, PSC-833 0.5-10 μM): did not affect
collagen trimer secretion (luminescence of culture supernatant, ratio to DMSO-treated group) [4]: did not affect collagen trimer secretion

siPPIF: siRNA against human PPIF (cyclophilin D), sense GGCAGAUGUCGUCCCAAAG, antisense CUUUGGGACGACAUCUGCC (SEQ ID NO: 27/28) (listed as RNA, chemistry not given here)
secretion level of collagen trimer, ratio to siGL2-treated group (PPIF (cyclophilin D) [7]): promotion of collagen trimer secretion was confirmed
